Where a SMILES comes first, the peptide text is derived from it. [ ]: non-standard residue; d: D form.
Key:
Mus musculus [1] = assay: Antinociceptive activity in icv dosed C57B1/6J mouse assessed as tail withdrawal latency measured in every 10 mins for 1 hr by warm water tail withdrawal assay; assay type: functional, organism-based
[2] = target: Kappa-type opioid receptor (Rattus norvegicus, UniProt P34975); assay: Displacement of [3H]diprenorphine from rat cloned KOR expressed in CHO cells after 90 mins by scintillation counting analysis
Kappa-type opioid receptor (Rattus norvegicus, UniProt P34975), sequence (P34975 whole entry): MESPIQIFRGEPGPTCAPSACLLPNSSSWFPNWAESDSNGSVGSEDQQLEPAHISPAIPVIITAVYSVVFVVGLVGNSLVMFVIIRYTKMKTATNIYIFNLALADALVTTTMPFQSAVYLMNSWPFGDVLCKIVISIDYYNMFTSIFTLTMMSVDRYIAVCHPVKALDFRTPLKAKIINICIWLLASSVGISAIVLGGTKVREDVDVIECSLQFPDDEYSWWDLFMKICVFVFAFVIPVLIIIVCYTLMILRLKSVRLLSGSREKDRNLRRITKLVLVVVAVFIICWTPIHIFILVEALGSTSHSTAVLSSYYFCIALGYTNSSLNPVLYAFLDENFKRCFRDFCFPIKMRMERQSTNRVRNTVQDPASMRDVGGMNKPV

[3] = Displacement of DPDPE from DOR in guinea pig brain membrane fraction after 30 mins by scintillation counting analysis; assay type: cell membranes, Cavia porcellus
[4] = target: Delta-type opioid receptor (Homo sapiens, UniProt P41143); assay: Antagonist activity at DOR (unknown origin) by [35S]GTPgammaS assay; assay type: functional
Delta-type opioid receptor, sequence (P41143 whole entry): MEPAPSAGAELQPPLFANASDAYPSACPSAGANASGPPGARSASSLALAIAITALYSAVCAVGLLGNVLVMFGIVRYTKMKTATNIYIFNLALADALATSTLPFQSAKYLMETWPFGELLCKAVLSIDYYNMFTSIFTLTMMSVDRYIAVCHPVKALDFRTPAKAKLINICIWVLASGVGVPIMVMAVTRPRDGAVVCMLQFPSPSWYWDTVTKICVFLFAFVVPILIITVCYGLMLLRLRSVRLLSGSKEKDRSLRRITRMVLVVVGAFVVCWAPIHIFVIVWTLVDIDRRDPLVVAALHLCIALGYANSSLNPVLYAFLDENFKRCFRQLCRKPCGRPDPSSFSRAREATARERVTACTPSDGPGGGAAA

[5] = target: T1, Kappa-type opioid receptor (Homo sapiens, UniProt P41145); assay: Binding affinity to KOR (unknown origin)
T1 sequence (P41145 whole entry): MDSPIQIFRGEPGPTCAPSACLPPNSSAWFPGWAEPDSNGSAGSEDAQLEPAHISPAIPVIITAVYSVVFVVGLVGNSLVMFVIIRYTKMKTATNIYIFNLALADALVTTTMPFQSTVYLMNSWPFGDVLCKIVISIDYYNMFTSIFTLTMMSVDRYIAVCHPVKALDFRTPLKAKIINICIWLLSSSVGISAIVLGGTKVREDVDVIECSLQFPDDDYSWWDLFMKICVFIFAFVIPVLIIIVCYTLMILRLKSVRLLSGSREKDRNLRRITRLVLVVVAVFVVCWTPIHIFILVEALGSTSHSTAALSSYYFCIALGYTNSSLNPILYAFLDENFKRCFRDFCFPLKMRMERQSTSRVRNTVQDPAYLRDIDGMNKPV

[6] = target: T1, Kappa-type opioid receptor; assay: Antagonist activity at KOR (unknown origin) by [35S]GTPgammaS binding assay
Mu-type opioid receptor = Mu-type opioid receptor (Homo sapiens, UniProt P35372); assay: Antagonist activity at MOR (unknown origin) by [35S]GTPgammaS binding assay
Mu-type opioid receptor, sequence (P35372 whole entry): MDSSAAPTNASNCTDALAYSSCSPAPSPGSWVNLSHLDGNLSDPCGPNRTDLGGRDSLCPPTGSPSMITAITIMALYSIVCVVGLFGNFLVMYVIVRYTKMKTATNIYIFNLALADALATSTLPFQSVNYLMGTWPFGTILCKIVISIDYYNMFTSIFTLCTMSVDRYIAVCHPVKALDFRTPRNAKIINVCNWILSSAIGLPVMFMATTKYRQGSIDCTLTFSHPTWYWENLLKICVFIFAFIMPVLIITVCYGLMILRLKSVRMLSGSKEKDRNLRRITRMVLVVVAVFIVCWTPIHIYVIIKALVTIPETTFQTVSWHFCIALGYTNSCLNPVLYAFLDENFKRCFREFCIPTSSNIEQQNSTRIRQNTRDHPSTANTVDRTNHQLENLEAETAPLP

[7] = target: T1, Kappa-type opioid receptor; assay: Inhibition of dynorphin A (1-13) NH2 binding to KOR (unknown origin) by adenylyl cyclase assay; assay type: functional
Mus musculus [8] = assay: Antinociceptive activity in C57B1/6J mouse at 10 nmol, icv administered 80 mins prior to U50488 addition by warm water tail withdrawal assay; assay type: functional
Rattus norvegicus [9] = assay: In vivo receptor occupancy at MOR in po dosed Harlan Sprague-Dawley rat brain after 5.5 hrs by LC/MS/MS analysis; assay type: functional
Rattus norvegicus [10] = assay: In vivo receptor occupancy at DOR in po dosed Harlan Sprague-Dawley rat brain after 5.5 hrs by LC/MS/MS analysis; assay type: functional

SMILES: O=C1N[C@@H](Cc2ccccc2)C(=O)N2CCC[C@@H]2C(=O)N[C@@H](Cc2ccccc2)C(=O)N[C@H]1Cc1c[nH]c2ccccc12 (cyclo(FWF[dP]))
- EC50 (Mus musculus [1]): 3.71 nmol
- Ki [2]: 35.4 nM
- IC50 [3]: 2600 nM

SMILES: O=C(Nc1cccc(NC(=O)c2cccc(N3CCCCC3)c2)c1)c1cccc(OC2CCN(CC3CC3)CC2)c1
- IC50 [4]: > 30000 nM
- Ki [5]: 0.5 nM
- IC50 [6]: 77 nM
- IC50 (Mu-type opioid receptor): > 30000 nM

SMILES: CC[C@H](C)[C@@H]1NC(=O)[C@H](CCCNC(=N)N)NC(=O)[C@@H](NC(=O)[C@H](Cc2ccccc2)NC(=O)CNC(=O)CNC(=O)[C@H](Cc2ccc(O)cc2)NCc2ccccc2)CC(=O)NC[C@@H](C(=O)N[C@@H](CCCNC(=N)N)C(=O)N2CCC[C@H]2C(=O)N[C@@H](CCCCN)C(N)=O)NC1=O
- Kb [7]: 84 nM

SMILES: O=C1N[C@H](Cc2c[nH]c3ccccc23)C(=O)N[C@@H](Cc2ccccc2)C(=O)N2CCC[C@@H]2C(=O)N[C@H]1Cc1ccccc1 (cyclo(F[dP]F[dW]))
- Activity (Mus musculus [8]): 10%
- Ki [2]: 30.6 nM

SMILES: Cc1cc(C)cc([C@@H]2CCCN2Cc2ccc(Oc3ccc(C(N)=O)cc3F)cc2)c1 [ATICAPRANT]
- ED50 (Rattus norvegicus [9]): > 30 mg/kg
- ED50 (Rattus norvegicus [10]): > 30 mg/kg
